Reference: PubChem BioAssay (NCI)
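In this assay, cells in 96-well plates receive the compound at five concentrations for 48 hours. Endpoints are linearly interpolated between the surrounding concentrations. TGI is the concentration that stops growth completely.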

Columns and labels:
Experiment in all cases: growth of human tumour cells (NCI), 48 h
UACC-257 melanoma = test system: UACC-257 melanoma
NCI-H460 lung = test system: NCI-H460 lung
SK-MEL-28 melanoma = test system: SK-MEL-28 melanoma
HS 578T breast = test system: HS 578T breast
RPMI-8226 leukemia = test system: RPMI-8226 leukemia
EKVX NSCLC = test system: EKVX NSCLC
BT-549 breast = test system: BT-549 breast
CCRF-CEM leukemia = test system: CCRF-CEM leukemia
MDA-N = test system: MDA-N
NCI-H226 lung = test system: NCI-H226 lung
UO-31 renal = test system: UO-31 renal
OVCAR-5 ovarian = test system: OVCAR-5 ovarian
UACC-62 melanoma = test system: UACC-62 melanoma
IGROV1 ovarian = test system: IGROV1 ovarian
HL-60(TB) leukemia = test system: HL-60(TB) leukemia
SK-MEL-2 melanoma = test system: SK-MEL-2 melanoma
A498 renal = test system: A498 renal
DU-145 prostate = test system: DU-145 prostate
MCF7 breast = test system: MCF7 breast
MDA-MB-435 = test system: MDA-MB-435
M14 melanoma = test system: M14 melanoma
COLO 205 colon = test system: COLO 205 colon
HCC-2998 colon = test system: HCC-2998 colon
SW-620 colon = test system: SW-620 colon
SNB-75 CNS = test system: SNB-75 CNS
HT29 colon = test system: HT29 colon
CAKI-1 renal = test system: CAKI-1 renal
786-0 renal = test system: 786-0 renal
SR leukemia = test system: SR leukemia
K-562 leukemia = test system: K-562 leukemia
NCI-H23 lung = test system: NCI-H23 lung
MOLT-4 leukemia = test system: MOLT-4 leukemia
T-47D breast = test system: T-47D breast
PC-3 prostate = test system: PC-3 prostate
HCT-116 colon = test system: HCT-116 colon
HOP-92 NSCLC = test system: HOP-92 NSCLC
SN12C renal = test system: SN12C renal
OVCAR-4 ovarian = test system: OVCAR-4 ovarian
ACHN renal = test system: ACHN renal
OVCAR-3 ovarian = test system: OVCAR-3 ovarian
KM12 colon = test system: KM12 colon
U251 CNS = test system: U251 CNS
HOP-62 NSCLC = test system: HOP-62 NSCLC
SK-MEL-5 melanoma = test system: SK-MEL-5 melanoma
SK-OV-3 ovarian = test system: SK-OV-3 ovarian
SF-295 CNS = test system: SF-295 CNS
NCI/ADR-RES ovarian = test system: NCI/ADR-RES ovarian
MDA-MB-231 breast = test system: MDA-MB-231 breast
SF-268 CNS = test system: SF-268 CNS
TK-10 renal = test system: TK-10 renal
SNB-19 CNS = test system: SNB-19 CNS
NCI-H522 lung = test system: NCI-H522 lung
LOX IMVI melanoma = test system: LOX IMVI melanoma
A549 NSCLC = test system: A549 NSCLC
MALME-3M melanoma = test system: MALME-3M melanoma
HCT-15 colon = test system: HCT-15 colon
SF-539 CNS = test system: SF-539 CNS
RXF 393 renal = test system: RXF 393 renal

## COc1ccc(C2=NNC(c3cc4cc(Br)ccc4nc3Cl)C2)cc1 (configuration not stated)
UACC-257 melanoma
  TGI: > 25 µM
NCI-H460 lung
  TGI: > 25 µM
SK-MEL-28 melanoma
  TGI: > 25 µM
HS 578T breast
  TGI: 24.2 µM
RPMI-8226 leukemia
  TGI: > 25 µM
EKVX NSCLC
  TGI: > 25 µM
BT-549 breast
  TGI: > 25 µM
CCRF-CEM leukemia
  TGI: 5.28 µM
MDA-N
  TGI: 17.8 µM
NCI-H226 lung
  TGI: 11.8 µM
UO-31 renal
  TGI: > 25 µM
OVCAR-5 ovarian
  TGI: > 25 µM
UACC-62 melanoma
  TGI: > 25 µM
IGROV1 ovarian
  TGI: > 25 µM
HL-60(TB) leukemia
  TGI: 12.1 µM
SK-MEL-2 melanoma
  TGI: > 25 µM
A498 renal
  TGI: > 25 µM
DU-145 prostate
  TGI: > 25 µM
MCF7 breast
  TGI: > 25 µM
MDA-MB-435
  TGI: > 25 µM
M14 melanoma
  TGI: > 25 µM
COLO 205 colon
  TGI: > 25 µM
HCC-2998 colon
  TGI: > 25 µM
SW-620 colon
  TGI: > 25 µM
SNB-75 CNS
  TGI: > 25 µM
HT29 colon
  TGI: > 25 µM
CAKI-1 renal
  TGI: > 25 µM
786-0 renal
  TGI: > 25 µM
SR leukemia
  TGI: > 25 µM
K-562 leukemia
  TGI: > 25 µM
NCI-H23 lung
  TGI: > 25 µM
MOLT-4 leukemia
  TGI: > 25 µM
T-47D breast
  TGI: > 25 µM
PC-3 prostate
  TGI: > 25 µM
HCT-116 colon
  TGI: > 25 µM
HOP-92 NSCLC
  TGI: > 25 µM
SN12C renal
  TGI: > 25 µM
OVCAR-4 ovarian
  TGI: > 25 µM
ACHN renal
  TGI: > 25 µM
OVCAR-3 ovarian
  TGI: > 25 µM
KM12 colon
  TGI: > 25 µM

## NC1=Nc2ccccc2Sc2nc3ccccc3n21
UACC-257 melanoma
  TGI: > 100 µM
NCI-H460 lung
  TGI: > 100 µM
U251 CNS
  TGI: > 100 µM
HS 578T breast
  TGI: > 100 µM
RPMI-8226 leukemia
  TGI: > 100 µM
HOP-62 NSCLC
  TGI: > 100 µM
SK-MEL-5 melanoma
  TGI: > 100 µM
BT-549 breast
  TGI: > 100 µM
CCRF-CEM leukemia
  TGI: > 100 µM
SK-OV-3 ovarian
  TGI: 77.9 µM
MDA-N
  TGI: > 100 µM
NCI-H226 lung
  TGI: > 100 µM
SF-295 CNS
  TGI: > 100 µM
NCI/ADR-RES ovarian
  TGI: > 100 µM
UO-31 renal
  TGI: 40.9 µM
OVCAR-5 ovarian
  TGI: > 100 µM
MDA-MB-231 breast
  TGI: > 100 µM
UACC-62 melanoma
  TGI: > 100 µM
IGROV1 ovarian
  TGI: > 100 µM
HL-60(TB) leukemia
  TGI: 6.49 µM
SF-268 CNS
  TGI: > 100 µM
TK-10 renal
  TGI: > 100 µM
SNB-19 CNS
  TGI: > 100 µM
DU-145 prostate
  TGI: > 100 µM
MCF7 breast
  TGI: > 100 µM
NCI-H522 lung
  TGI: > 100 µM
M14 melanoma
  TGI: 82.4 µM
COLO 205 colon
  TGI: > 100 µM
SW-620 colon
  TGI: > 100 µM
SNB-75 CNS
  TGI: > 100 µM
LOX IMVI melanoma
  TGI: > 100 µM
A549 NSCLC
  TGI: > 100 µM
HT29 colon
  TGI: 31.3 µM
786-0 renal
  TGI: 5.23 µM
MALME-3M melanoma
  TGI: > 100 µM
SR leukemia
  TGI: > 100 µM
K-562 leukemia
  TGI: > 100 µM
HCT-15 colon
  TGI: > 100 µM
NCI-H23 lung
  TGI: > 100 µM
MOLT-4 leukemia
  TGI: > 100 µM
T-47D breast
  TGI: > 100 µM
PC-3 prostate
  TGI: > 100 µM
HCT-116 colon
  TGI: 32.8 µM
HOP-92 NSCLC
  TGI: > 100 µM
SF-539 CNS
  TGI: > 100 µM
SN12C renal
  TGI: > 100 µM
OVCAR-4 ovarian
  TGI: > 100 µM
ACHN renal
  TGI: > 100 µM
OVCAR-3 ovarian
  TGI: > 100 µM
KM12 colon
  TGI: > 100 µM
RXF 393 renal
  TGI: > 100 µM
